The target of assay [1] is Eukaryotic translation initiation factor 2-alpha kinase 1 (Homo sapiens) (UniProt Q9BQI3). In words: Inhibition of human recombinant HRI at 40 nM related to control ULK1.
Assay [2] deals with Ephrin type-A receptor 4 (Homo sapiens) (UniProt P54764). In words: Inhibition of human recombinant EphA4 at 500 nM related to control ULK1.
The target of assay [3] is Fibroblast growth factor receptor 4 (Homo sapiens) (UniProt P22455). In words: Inhibition of human recombinant FGFR4 at 500 nM related to control ULK1.
Sequence of Fibroblast growth factor receptor 4 (Homo sapiens) (P22455 22-802 limits assumed): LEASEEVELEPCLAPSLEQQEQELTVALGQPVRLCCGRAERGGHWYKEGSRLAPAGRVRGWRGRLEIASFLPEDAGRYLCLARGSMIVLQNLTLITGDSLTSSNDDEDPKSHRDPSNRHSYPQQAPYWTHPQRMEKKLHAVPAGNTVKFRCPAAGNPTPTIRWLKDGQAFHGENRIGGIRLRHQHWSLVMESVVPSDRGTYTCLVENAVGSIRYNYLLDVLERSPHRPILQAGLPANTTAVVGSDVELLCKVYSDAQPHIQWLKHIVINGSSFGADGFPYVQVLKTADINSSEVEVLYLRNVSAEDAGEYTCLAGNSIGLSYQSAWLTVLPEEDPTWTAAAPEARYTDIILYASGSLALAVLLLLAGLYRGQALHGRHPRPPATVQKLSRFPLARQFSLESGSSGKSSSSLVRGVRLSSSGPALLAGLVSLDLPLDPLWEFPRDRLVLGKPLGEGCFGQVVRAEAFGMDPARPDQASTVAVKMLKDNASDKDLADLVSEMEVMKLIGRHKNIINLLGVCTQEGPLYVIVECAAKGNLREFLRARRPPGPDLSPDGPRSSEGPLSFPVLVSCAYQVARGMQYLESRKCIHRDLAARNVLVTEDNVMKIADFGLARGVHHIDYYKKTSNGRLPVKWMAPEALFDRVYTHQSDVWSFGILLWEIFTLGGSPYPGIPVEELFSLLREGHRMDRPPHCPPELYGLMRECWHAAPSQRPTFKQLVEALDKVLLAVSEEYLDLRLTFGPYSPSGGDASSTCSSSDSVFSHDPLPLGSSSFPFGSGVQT
Assay [4] deals with G protein-coupled receptor kinase 6 (Homo sapiens) (UniProt P43250). In words: Inhibition of human recombinant GPRK6 at 500 nM related to control ULK1.
For assay [5], the target named is T1, Protein kinase C zeta type (Homo sapiens) (UniProt Q05513).
T1 sequence (whole entry): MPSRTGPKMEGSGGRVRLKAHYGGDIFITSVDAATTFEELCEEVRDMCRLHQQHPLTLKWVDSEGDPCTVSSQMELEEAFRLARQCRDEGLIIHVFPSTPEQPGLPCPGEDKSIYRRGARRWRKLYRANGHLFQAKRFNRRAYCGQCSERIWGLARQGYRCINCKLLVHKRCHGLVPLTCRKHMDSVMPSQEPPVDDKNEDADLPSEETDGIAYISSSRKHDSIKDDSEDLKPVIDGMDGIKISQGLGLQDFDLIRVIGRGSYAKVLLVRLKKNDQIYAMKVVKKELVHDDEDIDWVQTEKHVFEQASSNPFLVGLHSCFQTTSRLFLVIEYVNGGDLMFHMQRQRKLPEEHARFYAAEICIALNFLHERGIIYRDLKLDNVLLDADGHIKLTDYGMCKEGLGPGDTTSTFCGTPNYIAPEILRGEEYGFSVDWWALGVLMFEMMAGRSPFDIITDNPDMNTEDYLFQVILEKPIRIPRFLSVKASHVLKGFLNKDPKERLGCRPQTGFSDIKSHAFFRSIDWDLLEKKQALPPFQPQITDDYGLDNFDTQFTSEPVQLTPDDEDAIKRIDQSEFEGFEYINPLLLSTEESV
The assay is described as follows: Inhibition of human recombinant PKCz at 15 nM in presence of ATP by radiometric assay relative to control.

Assay [6] concerns the target T2, Serine/threonine-protein kinase ULK2 (Homo sapiens) (UniProt Q8IYT8).
T2 sequence (whole entry): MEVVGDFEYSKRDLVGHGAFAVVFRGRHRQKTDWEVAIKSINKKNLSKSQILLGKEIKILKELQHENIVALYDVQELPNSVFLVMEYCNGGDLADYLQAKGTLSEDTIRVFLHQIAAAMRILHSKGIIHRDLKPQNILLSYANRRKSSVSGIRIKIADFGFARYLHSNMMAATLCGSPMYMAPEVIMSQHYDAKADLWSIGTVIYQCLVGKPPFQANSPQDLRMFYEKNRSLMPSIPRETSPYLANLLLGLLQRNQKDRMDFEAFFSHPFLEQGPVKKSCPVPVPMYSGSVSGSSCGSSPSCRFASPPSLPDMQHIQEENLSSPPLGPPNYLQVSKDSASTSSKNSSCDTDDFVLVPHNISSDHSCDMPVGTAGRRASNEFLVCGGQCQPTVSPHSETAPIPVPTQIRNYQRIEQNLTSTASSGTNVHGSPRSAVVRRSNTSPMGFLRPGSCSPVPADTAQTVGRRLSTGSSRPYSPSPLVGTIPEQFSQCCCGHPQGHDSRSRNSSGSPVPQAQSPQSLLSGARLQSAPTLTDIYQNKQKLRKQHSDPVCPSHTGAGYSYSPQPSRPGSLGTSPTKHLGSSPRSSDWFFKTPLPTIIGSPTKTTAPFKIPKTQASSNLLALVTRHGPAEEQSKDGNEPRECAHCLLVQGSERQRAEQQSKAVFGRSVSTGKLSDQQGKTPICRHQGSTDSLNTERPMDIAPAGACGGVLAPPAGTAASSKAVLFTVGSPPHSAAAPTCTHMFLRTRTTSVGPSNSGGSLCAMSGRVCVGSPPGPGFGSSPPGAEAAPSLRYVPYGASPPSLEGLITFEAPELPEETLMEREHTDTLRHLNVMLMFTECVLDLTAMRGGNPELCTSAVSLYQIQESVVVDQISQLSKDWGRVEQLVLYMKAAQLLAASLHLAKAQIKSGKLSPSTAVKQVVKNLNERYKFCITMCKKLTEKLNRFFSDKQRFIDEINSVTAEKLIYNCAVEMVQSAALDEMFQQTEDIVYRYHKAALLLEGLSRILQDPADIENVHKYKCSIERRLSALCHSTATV
In words: Inhibition of human recombinant ULK2 at 15 nM in presence of ATP by radiometric assay relative to control.

Assay [7] addresses T3, Myotonin-protein kinase (Homo sapiens) (UniProt Q09013).
T3 sequence (whole entry): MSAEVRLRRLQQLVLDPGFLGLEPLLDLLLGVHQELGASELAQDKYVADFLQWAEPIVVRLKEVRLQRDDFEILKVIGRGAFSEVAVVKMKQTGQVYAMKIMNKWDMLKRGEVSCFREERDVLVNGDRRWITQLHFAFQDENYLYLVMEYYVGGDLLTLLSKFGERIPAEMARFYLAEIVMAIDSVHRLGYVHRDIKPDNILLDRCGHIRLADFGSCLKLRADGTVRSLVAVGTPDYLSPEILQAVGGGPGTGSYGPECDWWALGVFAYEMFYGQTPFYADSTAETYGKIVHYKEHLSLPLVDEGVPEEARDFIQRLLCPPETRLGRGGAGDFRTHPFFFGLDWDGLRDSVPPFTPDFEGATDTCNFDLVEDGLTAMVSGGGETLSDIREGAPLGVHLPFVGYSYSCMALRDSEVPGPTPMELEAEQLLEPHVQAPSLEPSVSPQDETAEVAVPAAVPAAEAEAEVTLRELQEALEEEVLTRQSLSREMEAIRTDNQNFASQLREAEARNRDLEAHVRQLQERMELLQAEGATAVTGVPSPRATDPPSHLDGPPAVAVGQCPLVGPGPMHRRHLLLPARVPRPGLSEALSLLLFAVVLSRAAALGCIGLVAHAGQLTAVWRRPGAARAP
The assay is described as follows: Inhibition of human recombinant DMPK1 at 15 nM related to control ULK1.

In assay [8] the target is Mitogen-activated protein kinase 8 (Homo sapiens) (UniProt P45983). The assay is described as follows: Inhibition of human recombinant JNK1 at 15 nM related to control ULK1.
Sequence of Mitogen-activated protein kinase 8 (Homo sapiens) (P45983 whole entry): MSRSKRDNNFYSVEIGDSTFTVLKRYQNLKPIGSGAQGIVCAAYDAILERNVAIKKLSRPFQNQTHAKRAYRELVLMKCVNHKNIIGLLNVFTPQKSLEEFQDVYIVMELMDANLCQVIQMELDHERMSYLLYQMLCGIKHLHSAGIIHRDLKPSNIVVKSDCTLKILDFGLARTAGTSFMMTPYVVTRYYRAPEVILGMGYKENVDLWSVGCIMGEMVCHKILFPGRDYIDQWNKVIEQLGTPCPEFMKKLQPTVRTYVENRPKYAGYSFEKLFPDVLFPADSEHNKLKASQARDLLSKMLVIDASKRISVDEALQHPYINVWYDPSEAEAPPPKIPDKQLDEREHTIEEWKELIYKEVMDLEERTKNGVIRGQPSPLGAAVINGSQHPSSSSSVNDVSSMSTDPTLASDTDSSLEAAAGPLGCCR
Assay [9] deals with Serine/threonine-protein kinase WNK3 (Homo sapiens) (UniProt Q9BYP7). In words: Inhibition of human recombinant Wnk3 at 15 nM related to control ULK1.
Sequence of Serine/threonine-protein kinase WNK3 (Homo sapiens) (Q9BYP7 whole entry): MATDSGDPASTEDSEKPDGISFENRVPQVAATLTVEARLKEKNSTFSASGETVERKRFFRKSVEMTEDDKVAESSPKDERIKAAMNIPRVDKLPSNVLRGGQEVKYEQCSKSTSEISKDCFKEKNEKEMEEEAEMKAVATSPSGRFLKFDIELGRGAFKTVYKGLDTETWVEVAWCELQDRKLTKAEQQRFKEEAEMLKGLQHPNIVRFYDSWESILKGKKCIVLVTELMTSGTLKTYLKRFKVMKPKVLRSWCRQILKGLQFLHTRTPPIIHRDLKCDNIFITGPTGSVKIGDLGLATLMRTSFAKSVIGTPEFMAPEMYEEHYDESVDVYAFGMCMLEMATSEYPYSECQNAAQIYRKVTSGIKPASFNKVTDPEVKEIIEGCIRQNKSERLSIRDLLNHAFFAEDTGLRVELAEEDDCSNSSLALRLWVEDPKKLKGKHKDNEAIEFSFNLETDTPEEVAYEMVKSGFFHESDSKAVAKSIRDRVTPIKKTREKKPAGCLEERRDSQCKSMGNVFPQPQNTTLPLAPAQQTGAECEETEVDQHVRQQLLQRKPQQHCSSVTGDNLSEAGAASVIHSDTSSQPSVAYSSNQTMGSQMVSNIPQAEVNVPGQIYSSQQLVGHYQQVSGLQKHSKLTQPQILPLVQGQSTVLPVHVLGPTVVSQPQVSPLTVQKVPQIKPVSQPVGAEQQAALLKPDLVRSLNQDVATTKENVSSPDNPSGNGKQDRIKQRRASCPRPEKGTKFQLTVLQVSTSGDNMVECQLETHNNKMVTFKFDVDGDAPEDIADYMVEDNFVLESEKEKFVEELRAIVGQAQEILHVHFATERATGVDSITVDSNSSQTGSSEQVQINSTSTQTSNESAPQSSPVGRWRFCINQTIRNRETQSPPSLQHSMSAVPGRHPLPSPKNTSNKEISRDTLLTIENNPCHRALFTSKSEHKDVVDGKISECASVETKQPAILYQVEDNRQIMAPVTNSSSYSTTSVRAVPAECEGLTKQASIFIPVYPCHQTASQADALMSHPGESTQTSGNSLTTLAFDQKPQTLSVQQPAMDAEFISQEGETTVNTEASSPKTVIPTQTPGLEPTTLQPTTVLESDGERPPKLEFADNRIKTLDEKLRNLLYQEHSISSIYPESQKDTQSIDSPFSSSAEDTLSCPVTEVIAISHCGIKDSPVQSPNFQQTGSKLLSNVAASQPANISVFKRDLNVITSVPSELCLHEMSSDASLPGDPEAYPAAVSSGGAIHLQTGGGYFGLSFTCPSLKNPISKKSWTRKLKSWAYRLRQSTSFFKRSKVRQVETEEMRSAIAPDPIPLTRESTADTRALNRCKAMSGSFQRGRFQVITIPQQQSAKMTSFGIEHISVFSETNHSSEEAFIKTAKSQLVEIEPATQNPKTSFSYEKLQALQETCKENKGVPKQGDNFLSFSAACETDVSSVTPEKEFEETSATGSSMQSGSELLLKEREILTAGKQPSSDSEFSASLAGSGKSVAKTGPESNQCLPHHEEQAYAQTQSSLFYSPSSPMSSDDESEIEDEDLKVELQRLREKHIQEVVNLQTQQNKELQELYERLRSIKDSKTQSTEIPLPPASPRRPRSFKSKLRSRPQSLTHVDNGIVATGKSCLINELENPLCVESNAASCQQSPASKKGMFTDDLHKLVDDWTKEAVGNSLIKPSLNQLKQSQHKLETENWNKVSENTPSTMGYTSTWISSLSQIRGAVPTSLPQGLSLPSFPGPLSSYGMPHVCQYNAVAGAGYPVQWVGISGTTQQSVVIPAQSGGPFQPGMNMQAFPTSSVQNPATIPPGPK
The target of assay [10] is Serine/threonine-protein kinase 32B (Homo sapiens) (UniProt Q9NY57). The assay is described as follows: Inhibition of human recombinant YANK2 at 15 nM related to control ULK1.
Sequence of Serine/threonine-protein kinase 32B (Homo sapiens) (Q9NY57 whole entry): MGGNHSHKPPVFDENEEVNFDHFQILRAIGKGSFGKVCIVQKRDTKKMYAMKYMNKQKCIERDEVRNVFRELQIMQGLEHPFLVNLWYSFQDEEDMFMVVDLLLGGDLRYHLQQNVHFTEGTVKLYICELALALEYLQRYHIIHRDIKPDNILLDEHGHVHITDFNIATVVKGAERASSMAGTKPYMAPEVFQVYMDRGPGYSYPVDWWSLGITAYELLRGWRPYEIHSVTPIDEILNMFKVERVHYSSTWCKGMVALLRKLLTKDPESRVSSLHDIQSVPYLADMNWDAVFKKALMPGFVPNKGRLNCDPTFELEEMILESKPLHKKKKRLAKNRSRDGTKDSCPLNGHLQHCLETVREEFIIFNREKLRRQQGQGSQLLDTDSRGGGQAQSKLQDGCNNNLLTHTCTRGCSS

Structures are written as SMILES.

The term inhibition denotes the change of the read-out against control, counted positive when it falls.

Sequence of Ephrin type-A receptor 4 (Homo sapiens) (P54764 whole entry): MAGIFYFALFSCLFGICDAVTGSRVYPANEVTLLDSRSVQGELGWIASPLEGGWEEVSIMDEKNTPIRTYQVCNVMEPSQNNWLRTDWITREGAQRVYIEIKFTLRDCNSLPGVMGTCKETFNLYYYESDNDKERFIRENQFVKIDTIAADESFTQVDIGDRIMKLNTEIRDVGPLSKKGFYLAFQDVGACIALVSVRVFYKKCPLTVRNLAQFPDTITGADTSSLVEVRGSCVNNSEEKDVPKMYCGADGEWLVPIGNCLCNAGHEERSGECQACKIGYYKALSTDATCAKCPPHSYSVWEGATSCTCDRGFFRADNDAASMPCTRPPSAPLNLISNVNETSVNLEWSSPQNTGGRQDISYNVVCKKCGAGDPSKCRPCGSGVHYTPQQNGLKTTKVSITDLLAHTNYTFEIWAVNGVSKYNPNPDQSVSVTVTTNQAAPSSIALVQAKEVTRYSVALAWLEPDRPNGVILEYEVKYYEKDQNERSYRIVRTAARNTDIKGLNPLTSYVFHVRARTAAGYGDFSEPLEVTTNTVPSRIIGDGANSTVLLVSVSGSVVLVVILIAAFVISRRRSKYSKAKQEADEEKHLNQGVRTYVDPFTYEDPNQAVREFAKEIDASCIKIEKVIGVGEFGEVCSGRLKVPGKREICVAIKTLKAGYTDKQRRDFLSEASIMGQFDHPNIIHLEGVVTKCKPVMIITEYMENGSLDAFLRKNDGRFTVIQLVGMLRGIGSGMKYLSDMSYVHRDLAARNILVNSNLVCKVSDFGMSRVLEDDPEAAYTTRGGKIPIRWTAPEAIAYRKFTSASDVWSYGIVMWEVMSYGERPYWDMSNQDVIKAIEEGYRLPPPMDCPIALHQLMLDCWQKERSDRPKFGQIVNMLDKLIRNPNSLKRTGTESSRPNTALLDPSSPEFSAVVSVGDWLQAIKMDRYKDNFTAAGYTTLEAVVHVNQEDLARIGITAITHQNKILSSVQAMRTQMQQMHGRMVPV
Sequence of Eukaryotic translation initiation factor 2-alpha kinase 1 (Homo sapiens) (Q9BQI3 whole entry): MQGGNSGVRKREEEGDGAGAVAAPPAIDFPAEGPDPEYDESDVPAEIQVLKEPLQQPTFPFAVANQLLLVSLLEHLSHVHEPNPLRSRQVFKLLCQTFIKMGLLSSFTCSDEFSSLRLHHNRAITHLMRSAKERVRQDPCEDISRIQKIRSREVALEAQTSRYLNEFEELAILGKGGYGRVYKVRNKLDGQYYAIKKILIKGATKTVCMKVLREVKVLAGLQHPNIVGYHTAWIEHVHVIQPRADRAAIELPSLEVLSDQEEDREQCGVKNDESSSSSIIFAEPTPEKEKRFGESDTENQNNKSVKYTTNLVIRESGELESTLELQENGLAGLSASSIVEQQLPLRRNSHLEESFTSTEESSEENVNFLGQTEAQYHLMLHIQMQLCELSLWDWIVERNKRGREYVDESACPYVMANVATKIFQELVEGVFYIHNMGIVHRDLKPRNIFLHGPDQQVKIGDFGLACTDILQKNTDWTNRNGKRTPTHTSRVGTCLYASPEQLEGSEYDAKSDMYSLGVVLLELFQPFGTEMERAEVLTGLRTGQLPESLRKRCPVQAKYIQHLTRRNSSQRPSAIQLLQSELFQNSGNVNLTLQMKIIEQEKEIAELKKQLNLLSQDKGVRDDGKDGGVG

For `O=C(N[C@@H](C1CC1)C(F)(F)F)c1cc(-c2cnn3cc(-c4ccc(F)cc4)cnc23)cs1`, the fold change (FC) in [1] was determined as 0.01.

For `CNC(=O)c1ccccc1Oc1nc(Nc2cc(OC)c(OC)c(OC)c2)ncc1Br`, the values for the fold change (FC) in assay [2], in [3] and in [4] were 0.2, 0.14 and 0.16, respectively.

On to `CC(C)[C@H](NC(=O)c1cc(-c2cnn3cc(-c4ccc(OCCN5CCCCC5)cc4)cnc23)cs1)C(F)(F)F`, for which the results for the inhibition in [5] and in assay [6] were 0% and 73%, respectively. In addition, the fold change (FC) was 0 in assay [7], 0.09 in assay [8], 0 in assay [9] and 0 in [10].
